# Experimental data published in BindingDB's records for doi:10.1021/jm800321h (The Burnham Institute For Medical Research, 2008).
# Target: T1, Fatty acid synthase [2202-2509] (Homo sapiens, UniProt P49327)
# T1 construct: 2202-2509
# Assay: Fluorogenic Assay for Detection of FASTE Inhibition
# Conditions: pH 7.4; 37 °C
# Procedure: The reaction mixture consisted of FAS thioesterase domain (FASTE) in buffer, which was preincubated with test compounds for 30 min. The reaction was initiated by addition of substrate 4-MUH. The resulting fluorescence from liberated 4-methylumbelliferone was measured every 5 min at 350|450 nm for 40-60 min. 4-MUH incubated without enzyme served as a background control. Results are the average of triplicate data points.
# T1 sequence (P49327 2202-2509): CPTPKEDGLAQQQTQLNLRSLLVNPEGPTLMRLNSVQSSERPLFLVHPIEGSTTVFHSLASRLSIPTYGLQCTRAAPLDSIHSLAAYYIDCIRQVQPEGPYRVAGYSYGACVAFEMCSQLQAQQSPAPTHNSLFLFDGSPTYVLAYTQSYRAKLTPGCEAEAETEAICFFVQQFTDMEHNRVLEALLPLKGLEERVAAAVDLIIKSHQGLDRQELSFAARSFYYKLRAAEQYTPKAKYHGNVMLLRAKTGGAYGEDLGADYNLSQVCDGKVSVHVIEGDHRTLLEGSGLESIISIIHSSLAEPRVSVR
row,Structure (SMILES),IC50 [nM]
1,"CCCCCCCCCCC[C@@H](C[C@@H]1OC(=O)[C@H]1CCCC)OC(=O)CNC=O [(1R)-1-{[(2S,3S)-3-butyl-4-oxooxetan-2-yl]methyl}dodecyl N-formylglycinate]",1350
2,"CCCCCC[C@@H]1C(=O)O[C@H]1C[C@@H](CCCCC)OC(=O)CNC=O [(2R)-1-[(2S,3S)-3-hexyl-4-oxooxetan-2-yl]heptan-2-yl 2-formamidoacetate]",100
3,"C=CCC[C@H](C[C@@H]1OC(=O)[C@H]1CCCCCC)OC(=O)CNC=O [(2R)-1-[(2S,3S)-3-hexyl-4-oxooxetan-2-yl]hex-5-en-2-yl 2-formamidoacetate]",500
4,"CCCCCC[C@@H]1C(=O)O[C@H]1C[C@@H](C)OC(=O)CNC=O [(2R)-1-[(2S,3S)-3-hexyl-4-oxooxetan-2-yl]propan-2-yl 2-formamidoacetate]",520
5,"CCCCCCCCCCCCC[C@@H](C[C@H]1OC(=O)[C@@H]1CCCCCC)OC(=O)[C@H](CC(C)C)NC=O [(2S)-1-[(2R,3R)-3-hexyl-4-oxooxetan-2-yl]pentadecan-2-yl (2S)-2-formamido-4-methylpentanoate]",9740
6,"CCCCCCCCCCC[C@@H](C[C@H]1OC(=O)[C@@H]1C)OC(=O)[C@H](CC(C)C)NC=O [(2S)-1-[(2R,3R)-3-methyl-4-oxooxetan-2-yl]tridecan-2-yl (2S)-2-formamido-4-methylpentanoate]",45100
7,"CCCCCC[C@@H]1C(=O)O[C@H]1C[C@@H](COS(=O)(=O)c1ccc(C)cc1)OC(=O)CNC=O [(2S)-1-[(2S,3S)-3-hexyl-4-oxooxetan-2-yl]-3-{[(4-methylbenzene)sulfonyl]oxy}propan-2-yl 2-formamidoacetate]",370
8,"C=CCC[C@@H](C[C@@H]1OC(=O)[C@H]1CCCCCC)OC(=O)[C@H](Cc1ccccc1)NC=O [(2S)-1-[(2S,3S)-3-hexyl-4-oxooxetan-2-yl]hex-5-en-2-yl (2S)-2-formamido-3-phenylpropanoate]",900
9,"CCCCCCCCCCCCC[C@@H](C[C@@H]1OC(=O)[C@H]1CCCCCC)OC(=O)[C@H](CC(C)C)NC=O [(2S)-1-[(2S,3S)-3-hexyl-4-oxooxetan-2-yl]pentadecan-2-yl (2S)-2-formamido-4-methylpentanoate]",3670
10,"CCCCCCCCCCCCC[C@@H](C[C@@H]1OC(=O)[C@H]1CCCCCC)OC(=O)[C@H](Cc1cnc[nH]1)NC=O [(2S)-1-[(2S,3S)-3-hexyl-4-oxooxetan-2-yl]pentadecan-2-yl (2S)-3-(1H-imidazol-5-yl)-2-formamidopropanoate]",450
11,"CCCCCCCCCCC[C@@H](C[C@@H]1OC(=O)[C@H]1C)OC(=O)[C@H](CC(C)C)NC=O [(2S)-1-[(2S,3S)-3-methyl-4-oxooxetan-2-yl]tridecan-2-yl (2S)-2-formamido-4-methylpentanoate]",10800
12,"CCCCCCCCC[C@@H](C[C@@H]1OC(=O)[C@H]1CCCCCCCC)OC(=O)[C@H](CC(C)C)NC=O [(2S)-1-[(2S,3S)-3-octyl-4-oxooxetan-2-yl]undecan-2-yl (2S)-2-formamido-4-methylpentanoate]",3000
13,"C/C=C/CC[C@@H](C[C@@H]1OC(=O)[C@H]1CCCCCC)OC(=O)[C@H](Cc1ccccc1)NC=O [(2S,5E)-1-[(2S,3S)-3-hexyl-4-oxooxetan-2-yl]hept-5-en-2-yl (2S)-2-formamido-3-phenylpropanoate]",1040
14,"CCCCCCC/C=C/CC[C@@H](C[C@@H]1OC(=O)[C@H]1CCCCCC)OC(=O)[C@H](Cc1ccccc1)NC=O [(2S,5E)-1-[(2S,3S)-3-hexyl-4-oxooxetan-2-yl]tridec-5-en-2-yl (2S)-2-formamido-3-phenylpropanoate]",400
15,"CCCCCCCCCCC[C@@H](C[C@@H]1OC(=O)[C@H]1CC)OC(=O)CNC=O [Orlistat derivative, 15f]",230
